One molecule from US20230028658A1, “EXPANDED DOSAGE REGIMENS FOR INTEGRIN INHIBITORS” (Pliant Therapeutics, Inc., priority 2021, published 2023) can be followed below.

Each structure is given as a SMILES string. Where two headings read alike, the source gives them in different places. A value given as a limit tells only on which side of the number the result lay.

One series relates to bleomycin-treated mice. Nature of the series: Murine bleomycin model. The class given is in vivo, Mice (C57BL/6). From the text: (§1) It has been previously shown that inhibition of αvβ6 in the lung can be detected though measurement of phospho-SMAD (pSMAD) in alveolar macrophages. Alveolar macrophages are known to operate in a unique niche in the lung, distinct from interstitial macrophages. SMAD3 is a downstream target of the active TGF-β cytokine binding its receptor and in alveolar macrophages it is phosphorylated by homoeostatic levels of TGF-β. Accordingly, it was desirable to know whether inhibition of TGF-β activation using the disclosed compounds would result in reduced SMAD2 and SMAD3 phosphorylation.
Mice (C57BL/6) were divided into healthy (n=15), vehicle-treated (n=15), and test article-treated (n=15 per dose) groups. Mice in the vehicle and test article-treated groups were administered 3 U/kg of bleomycin (Teva Pharmaceuticals; North Wales, Pa.) via oropharyngeal aspiration while under anesthesia on day 0. Healthy animals were administered water in a similar fashion. Starting on day 7, mice in the control group were administered PBS vehicle, 130 μL, by oral gavage, BID for 14 days. Also starting on day 7, mice in the test group were administered compound 5 in PBS by oral gavage, BID for 14 days, at relative dosages of 1×, 2.5× and 5×. […] From day 14 through day 21, 9 of the 15 mice were administered ^2H2O for labeling. All mice were sacrificed on day 21 and tissues were collected. Samples were prepared for analysis either directly from lung tissue, or by bronchoalveolar lavage, which washes out the bronchiolar and alveolar space with saline to produce a bronchoalveolar lavage fluid (BALF) in which 80-90% of cells are alveolar macrophages.

The test system of series [1] is lung Col1a1 expression. Nature of the series: Precision cut lung slices from human IPF explants, 3 days, Col1a1 expression. The settings on record: human IPF PCLS, 3G9 ≥400 ng/mL, compound 5 179 nM, ALK5 inhibitor 1 μM, FIG. 6C. The class given is cell-based. From the text: Explanted lung tissue was obtained from human IPF subjects and inflated with agarose as described in the preceding examples. Biopsy cores were obtained from the agarose-inflated lung tissue. The biopsy cores were subjected to precision slicing to obtain several hundred μm thick. Individual slices were distributed in a multiwell culture plate and cultured for […] under control (DMSO) and test compound conditions. The viability of the slices over the course of culturing was confirmed by WST-1 assay of mitochondrial activity.

Series [2] can be described thus: Binding to plasma proteins, equilibrium dialysis. The class given is in vitro ADME. The settings on record: human, plasma of dosed study participants, oral, participants' plasma Day 7. How it is done: Binding to plasma proteins was determined in participants' plasma (Day 7) using a qualified equilibrium dialysis protocol. The mean % unbound was 0.292%±0.067%, and ranged from 0.182% to 0.38% across the 20-mg cohort participants. The mean % unbound was 0.318%+0.065% and ranged from 0.22% to 0.376% across the 40-mg cohort participants. Due to the unexpected amount of plasma protein binding in these participants, it was decided to examine higher doses of the dual […] inhibitor (Compound 5) to determine whether such higher doses would compensate for the high protein binding and provide greater amounts of free drug.

In the next series the test system is COL1A1 expression. Nature of the series: PCLS from IPF lung tissue, seven days, COL1A1 expression. The class given is cell-based, human. The settings on record: PCLS from a single IPF lung tissue sample, Compound 5 200 pM to 1 μM, significant reduction observed ≥2 nM, FIG. 6E. How it is done:
PCLS from 5-7 idopathic pulmonary fibrosis (IPF) lung tissue samples were cultured for seven days with one of: DMSO; Compound 5 at 200 nM; nintedanib at 75 nM; pirfenidone at 50 μm; a combination of Compound 5 at 200 nM and nintedanib at 75 nM; a combination of Compound 5 at 200 nM and pirfenidone at 50 μm; or an Alk5 inhibitor at 1 μm. […] FIG. 6D is a bar graph showing relative expression of COL1A1 in precision cut lung slices (PCLS) from idopathic pulmonary fibrosis (IPF) lung tissue upon exposure to Compound 5, clinical standard of care compounds nintedanib (Nin) and pirfenidone (Pirf), and an ALK5 inhibitor, all versus DMSO control.
PCLS from a single IPF lung tissue sample were cultured for seven days with Compound 5 at concentrations of 200 pM, 2 nM, 60 nM, 200 nM, and 1 μM, along with 0.1% DMSO control and an Alk5 inhibitor at 1 μM. […] COL1A1 expression is also graphed for the PCLS in the presence of 0.1% DMSO control, and an Alk5 inhibitor at 1 μM.

The subject of series [3] is lung Col1a1 expression. Nature of the series: Precision cut lung slices of mice under chronic bleomycin exposure, Col1a1 expression (Example B9). The class given is cell-based, Mice (C57BL/6). The settings on record: chronic bleomycin PCLS, 7 days culture, normalized to DMSO; FIG. 5B. As to the method:
Mice (C57BL/6) were administered 3 U/kg of bleomycin (Teva Pharmaceuticals; North Wales, Pa.) on Day 0 and 1 U/kg of bleomycin on days 14, 28, 42 and 56 via oropharyngeal aspiration while under anesthesia. At day 70, 14 days after the final bleomycin insult, precision cut lung slices were obtained. Following euthanization, 2% low gelling temp agarose was injected into the mouse lungs via the trachea. […] The lobes were then subjected to precision slicing to obtain samples for culture using a microtome (Compresstome VF-300-0Z, Precisionary; Greenville, N.C.). Individual slices were distributed in a multiwell culture plate and cultured for 7 days under control (DMSO) and test compound conditions. The viability of the slices over the course of culturing was confirmed by WST-1 assay of mitochondrial activity.
During the culture period, slices in the control group were treated with DMSO and slices in the test group were treated with a DMSO solution of one of: the selective antibody αvβ6 inhibitor 3G9; the αvβ1-selective small molecule inhibitor; a combination of the selective antibody αvβ6 inhibitor 3G9 and the αvβ1-selective small molecule inhibitor; compound 5; and the small molecule ALK5 inhibitor. The selective αvβ1 and αvβ6 integrin inhibitors were analyzed at ≥their respective IC90 concentrations for inhibition of TGF-beta activation. […]

The test system of another series is healthy mice. Nature of the series: pSMAD3/SMAD3 in lung tissue and BALF of healthy mice. The settings on record: 4 days of compound 5 treatment, FIG. 4B. The class given is in vivo.
Source text: as §1
Mice (C57BL/6) were divided into healthy (n=15), vehicle-treated (n=15), and test article-treated (n=15 per dose) groups. […] […] […] […] […] […] […] Samples were prepared for analysis either directly from lung tissue, or by bronchoalveolar lavage, which washes out the bronchiolar and alveolar space with saline to produce a bronchoalveolar lavage fluid (BALF) in which 80-90% of cells are alveolar macrophages.
FIG. 4A is a graph of PSMAD3/SMAD3 in lung tissue from healthy mice administered PBS vehicle and varying levels of compound 5 for 4 days. FIG. 4B is a graph of PSMAD3/SMAD3 in BALF drawn from the same healthy mice administered PBS vehicle and varying levels of compound 5 for 4 days.

Regarding `COCCN(CCCCc1ccc2c(n1)NCCC2)CC[C@H](Nc1ncnc2ccccc12)C(=O)O` [Compound 5, (S)-4-((2-methoxyethyl) (4-(5,6,7,8-tetrahydro-1,8-naphthyridin-2-yl)butyl)amino)-2-(quinazolin-4-ylamino) butanoic acid], the “pSMAD3 levels in lung and BALF cells vs. plasma drug exposure” value in the series with bleomycin-treated mice (14 days after bleomycin, […] dose PO BID 1.5 days, FIGS. 4J, 4K) is reported as “close inverse relationship”. The “accumulated new collagen (percentage of lung collagen containing 2H-labeled hydroxyproline)” value with bleomycin-treated mice (bleomycin mice, 1× and 5× (p<0.01 vs vehicle), FIG. 4D) is given as “dose-dependent reduction”. Moreover, the “total pulmonary collagen, as measured by μg of hydroxyproline” value with bleomycin-treated mice (bleomycin mice, 1×, […], 5× (p<0.05 vs vehicle), FIG. 4E) is listed as “reduction in total pulmonary collagen”. Moreover, the “percent total collagen area in second harmonic generation lung images” value with bleomycin-treated mice (bleomycin mice, 1×, […], 5×, FIG. 4I) is “substantial, statistically significant dose-dependent reduction”. In addition, the “pSMAD3 levels in the lung (SMAD3 phosphorylation)” value in the series on bleomycin-treated mice (bleomycin mice, oral gavage BID 14 days, 1×, […], 5×, FIG. 4C) is recorded as “approximately 50 % of the untreated levels”. In addition, the “lung Col1a1 expression” value is listed as “substantial, statistically significant (p<0.01 vs vehicle) decrease” in the series with lung Col1a1 expression [1] and “decreased lung Col1a1 expression substantially” with lung Col1a1 expression [3]. In addition, the fraction unbound is 0.00182 to 0.0038 in series [2] (20 mg, 20-mg cohort, read-out: % unbound, range across participants); 0.00292 in series [2] (20 mg, 20-mg cohort, read-out: mean % unbound); 0.0022 to 0.00376 in series [2] (40 mg, 40-mg cohort, read-out: % unbound, range across participants); 0.00318 in series [2] (40 mg, 40-mg cohort, read-out: mean % unbound). In addition, the “reduction in COL1A1 expression at ≥2 nM” value in the series on COL1A1 expression is on record as no less than 47%. Further, in the series on healthy mice, the “PSMAD3/SMAD3 in cells isolated from BALF” value is “approximately 50 % of the untreated levels”.
